The target of experiment [1] is T1, Bp PPAT (tagged, MAHHHHHHMGTLEAQTQGPGS-ORF) (Burkholderia pseudomallei, UniProt Q3JW91).
T1 construct: gene coaD
The settings on record: pH 4.6, 0.2 M ammonium sulfate, PEG 2000 MME; 1 mM coenzyme A added; active site; moiety of hydrolysed or disordered coenzyme A; weak density, adenine possibly partially occupied; may be part of disor.

For experiment [2], the target named is T2, Bp PPAT (tagless, GPGS-ORF) (Burkholderia pseudomallei, UniProt Q3JW91).
T2 construct: gene coaD
T2 sequence (Q3JW91 whole entry, looked up): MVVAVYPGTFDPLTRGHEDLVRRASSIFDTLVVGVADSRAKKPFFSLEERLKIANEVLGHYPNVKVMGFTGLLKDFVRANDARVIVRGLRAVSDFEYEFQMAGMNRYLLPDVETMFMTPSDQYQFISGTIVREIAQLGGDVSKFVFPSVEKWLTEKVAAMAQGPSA
The settings on record: 2.0 M ammonium sulfate; 10 mM ATP added to protein; ligand carried over from E. coli host; active site; occupancy 0.5.

From article PMC3169398 (Acta Crystallographica Section F: Structural Biology and …, 2011) come the findings set out here.

The structures appear in SMILES notation.

T1 sequence (Q3JW91 whole entry, looked up): as above

Consider `Nc1ncnc2[nH]cnc12` [adenine], for which the “X-ray crystal structure, 1.6 Å” value in experiment [1] is listed as “We noted modest omit electron density for the adenine ring, which was also modelled”.
As to `CC(C)(COP(=O)(O)OP(=O)(O)OC[C@H]1O[C@@H](n2cnc3c(N)ncnc32)[C@H](O)[C@@H]1O)[C@@H](O)C(=O)NCCC(=O)NCCS` [dephospho-coenzyme A], in experiment [2], the “X-ray crystal structure, 2.1 Å” value is on record as “clear evidence but weak electron density for dephospho-coenzyme A in the active site”.
